# Reference: US20160279187A1, “CALPAIN INHIBITORS FOR IBD AND COLORECTAL CANCER TREATMENT” (UNIVERSITY OF HAWAII, priority 2013, published 2016)
# Where a SMILES comes first, the peptide text is derived from it. The star is where a group is joined. Cbz = O=C(OCc1ccccc1)*; CH2F = FC*
# Columns and labels:
# [1] = system: Bone marrow derived macrophages (BMDM); experiment: cytokine production by activated bone marrow derived macrophages (CBA); type: cell-based, mouse; details: 20 μg/ml; TNFα primed, E. faecalis activated BMDM
# Procedure: Bone marrow derived macrophages (BMDM) were prepared as previously described by methods known to those skilled in the art. On day 5 of culture, 2×10^6 BMDM were seeded in 6-well plates and the following day were primed for 18 h with TNFα (20 ng/mL), followed by 1 h stimulation with E. faecalis (1 μg/mL; ATCC). Stimulation with E. faecalis was conducted in the presence of the zLLY-CH2F calpain-2 inhibitor (20 μg/mL) or DMSO as a control. Media was removed from treated BMDM, centrifuged at 300×g for 5 min and supernatent analyzed using the Cytometric Bead Array Mouse Inflammation Kit (BD Biosciences, San Jose, Calif.). Cytokine data were analyzed using Flowjo software (Ashland, Oreg.) and GraphPad Prism version 4.0 (GraphPad, La Jolla, Calif.). Cell pellets were lysed and analyzed for IκB and NFκB by Western blot as previously described (Miyazaki, T. et al. Journal of Atherosclerosis and Thrombosis 20, 228-237, 2013). In other experiments, mouse CT-26.WT and human HT-29 colon cancer cells were plated in 96-well plates at 10^3 cells/well with 20 μg/mL inhibitor or DMSO, followed by analyses for IκB and NFκB by Western blot as described above for BMDM. For proliferation assays, fresh media with 20 μg/mL inhibitor or DMSO were added every 2 d. Each day 4 wells were quantified using Celltiter MTS reagent (Promega) and the resulting signal was used to generate a proliferation curve. Calpain activity was measured using a Calpain activity assay kit (BioVision, Inc., Milpitas, Calif.) as previously described. Colons were harvested on day 4 and calpain activity measured. Enzyme-linked immunosorbant assay (ELISA) analyses of cecum hemoglobin has been previously described (Miyazaki, T. et al. Journal of Atherosclerosis and Thrombosis 20, 228-237, 2013).
# To determine if a similar mechanism may be contributing to the effect of the calpain-2 inhibition in the DSS model of colitis, macrophages were analyzed for NFκB activation and inflammatory cytokine secretion. Bone marrow derived macrophages were primed […] with TNFα (20 ng/ml) and activated with E. faecalis (1 μg/ml) for 1 h in the presence or absence of calpain-2 inhibitor (20 μg/ml). Supernatants were evaluated for a panel of cytokines including IFNγ, TNFα, IL-6, and MCP-1, IL-10, and IL-12. Real-time PCR was performed on total RNA extracted from colon tissues to access levels of cytokines. Media was collected from wells and cytokines assessed by CBA kit (BD Biosciences). For IκB blotting cells were lysed and SDS-PAGE was performed. Membranes were stained with anti-IκB (Cell Signalling) and anti-βactin (Santa Cruz). For NfκB blotting an NFκB Activation Kit (Five Photon) was used to isolate nuclear fractions. These fractions were transferred using SDS-PAGE. The membranes were stained with anti-NFκB (Santa Cruz) or anti-TATA (Abcam). Data are mean±SE (n=3) and represent results from three independent experiments. *p<0.05; one way ANOVA followed by Tukey post-test. […] Importantly, those cytokines most affected by the calpain-2 are regulated by NFκB.
# cathespin L = cathespin L (Homo sapiens, UniProt P07711); details: off-target protein; Li et al., Biochemistry 2006; cited from earlier work
# Chain of cathespin L (P07711 114-333): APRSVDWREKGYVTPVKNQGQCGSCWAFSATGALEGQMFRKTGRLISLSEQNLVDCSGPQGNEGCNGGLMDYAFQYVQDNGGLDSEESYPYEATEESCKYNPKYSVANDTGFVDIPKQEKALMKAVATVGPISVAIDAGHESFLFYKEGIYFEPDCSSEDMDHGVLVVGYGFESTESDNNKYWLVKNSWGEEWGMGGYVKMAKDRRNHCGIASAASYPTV
smiles,measurement,setting,value
"CC(C)C[C@H](NC(=O)OCc1ccccc1)C(=O)N[C@@H](CC(C)C)C(=O)N[C@@H](Cc1ccc(O)cc1)C(=O)CF [zLLY-CH2F, Z-LLY-CH2F] (Cbz-Leu-Leu-Tyr-CH2F)",production of IFNγ,[1],significant decrease
same,production of IL-6,[1],significant decrease
same,production of IL-10,[1],not significantly affected
same,production of IL-12,[1],not significantly affected
same,production of MCP-1,[1],significant decrease
same,production of TNFα,[1],significant decrease
same,"rate constant k2, inhibition of cathespin L",cathespin L,"680,000 M^−1s^−1"
